{
  "source": "patent US20100292280A1",
  "about": "“ANTI-PYRETIC VASODILATORS” (priority 2007, published 2010)",
  "origin": "cited, not measured here",
  "key": {"[1]": {"test_system": "forearm and dorsum of the foot skin of healthy subjects and diabetic neuropathic patients"}, "healthy adults": {"test_system": "healthy adults", "conditions": "ingestion of 5 mg niacin per Kg body weight"}, "skin": {"test_system": "skin", "conditions": "doses of niacin over 50 mg"}},
  "data": [
    {"molecule": "COC(=O)c1cccnc1", "note": "[methyl nicotinate]", "values": [
      {"measurement": "vasodilatory response compared to the acetylcholine and sodium nitroprusside responses", "setting": "[1]; control group, foot", "value": "higher"},
      {"measurement": "vasodilatory response, comparison between agents", "setting": "[1]; control group, forearm", "value": "similar"},
      {"measurement": "maximal vasodilatory response, comparison between agents", "setting": "[1]; diabetic patients, forearm and foot level", "value": "similar"},
      {"measurement": "time after application at which vasodilation was present", "setting": "[1]; topical 1% methyl nicotinate", "value": 5, "unit": "min"},
      {"measurement": "time of decline of vasodilation to pre-application levels", "setting": "[1]; topical 1% methyl nicotinate", "value": 120, "unit": "min"},
      {"measurement": "time of peak vasodilation", "setting": "[1]; topical 1% methyl nicotinate", "value": "15 to 30", "unit": "min"}
    ]},
    {"molecule": "O=C(O)c1cccnc1", "note": "[niacin, nicotinic acid]", "values": [
      {"measurement": "duration of the decrease of core body temperature", "setting": "healthy adults", "value": "about 70 minutes"},
      {"measurement": "time at which the sharp decrease in body temperature begins, after oral ingestion", "setting": "healthy adults", "value": "about 20 minutes"},
      {"measurement": "time of the peak of continuous temperature reduction, after ingestion", "setting": "healthy adults", "value": "about 50 minutes"},
      {"measurement": "undesired side effect reported by a significant portion of the subjects", "setting": "healthy adults", "value": "sever hypotension"},
      {"measurement": "decrease of core body temperature", "setting": "healthy adults; on average", "value": 0.44, "unit": "°C"},
      {"measurement": "duration of flushing of the skin", "setting": "skin", "value": "about 60 minutes"}
    ]}
  ]
}
